# Results as given in patent US4497802A, “N-Acyl glycopeptide derivatives” (Eli Lilly and Company, priority 1983, dated 1985).
# Legend:
# [1] = system: Staphylococcus aureus X1.1; assay: MIC, standard agar-dilution assay; assay type: cell-based; conditions: Staphylococcus aureus X1.1; agar dilution
# [2] = system: Staphylococcus aureus V41; assay: MIC, standard agar-dilution assay; assay type: cell-based; conditions: Staphylococcus aureus V41, penicillin-resistant strain; agar dilution
# [3] = system: Staphylococcus aureus X400; assay: MIC, standard agar-dilution assay; assay type: cell-based; conditions: Staphylococcus aureus X400, methicillin-resistant strain
# [4] = system: Staphylococcus aureus S13E; assay type: cell-based; conditions: agar dilution
# [5] = system: Staphylococcus epidermidis EPI1; assay type: cell-based; conditions: Staphylococcus epidermidis EPI1; agar dilution
# [6] = system: Staphylococcus epidermidis EPI2; assay: MIC, standard agar-dilution assay; assay type: cell-based
# [7] = system: Streptococcus pyogenes C203; assay: MIC, standard agar-dilution assay; assay type: cell-based; conditions: Streptococcus pyogenes C203; agar dilution
# [8] = system: Streptococcus pneumoniae Park I; assay type: cell-based; conditions: agar dilution
# [9] = system: Streptococcus Group D X66; assay: MIC, standard agar-dilution assay; assay type: cell-based; conditions: Streptococcus Group D X66; agar dilution
# Streptococcus Group 9960 = assay: MIC, standard agar-dilution assay; assay type: cell-based; conditions: Streptococcus Group 9960; agar dilution
# [10] = system: Haemophilus influenzae C.L.; assay: MIC, standard agar-dilution assay; assay type: cell-based; conditions: ampicillin-sensitive strain
# [11] = system: Haemophilus influenzae 76; assay: MIC, standard agar-dilution assay; assay type: cell-based; conditions: Haemophilus influenzae 76, ampicillin-resistant strain
# Staphylococcus aureus = assay: ED50 in experimentally infected mice; assay type: in vivo; conditions: mice infected with Staphylococcus aureus; administered subcutaneously 1 and 4 hours postinfection
# Streptococcus pneumoniae = assay: ED50 in experimentally infected mice; assay type: in vivo; conditions: mice infected with Streptococcus pneumoniae; administered subcutaneously 1 and 4 hours postinfection
# Method: (§1) Some of the derivatives of this invention have shown in vivo antimicrobial activity against experimentally-induced infections in laboratory animals. When two doses of test compound were administered to experimentally infected mice, the activity observed was measured as an ED50 value [effective dose in mg/kg to protect 50% of the test animals: see Warren Wick, et al., J. Bacteriol. 81, 233-235 (1961)].
# (§2) ^a mg/kg × 2; administered subcutaneously 1 and 4 hours
# Streptococcus pyogenes = assay: ED50 in experimentally infected mice; assay type: in vivo; conditions: mice infected with Streptococcus pyogenes; administered subcutaneously 1 and 4 hours postinfection
# Method: as §1, §2
Substance,MIC [1],MIC [2],MIC [3],MIC [4],MIC [5],MIC [6],MIC [7],MIC [8],MIC [9],MIC (Streptococcus Group 9960),MIC [10],MIC [11],ED50 (Staphylococcus aureus),ED50 (Streptococcus pneumoniae),ED50 (Streptococcus pyogenes)
"N--(3,5-dichlorobenzoyl)A41030A [Example 22]",0.125 µg/mL,0.125 µg/mL,0.25 µg/mL,0.25 µg/mL,0.125 µg/mL,0.25 µg/mL,0.5 µg/mL,0.5 µg/mL,0.5 µg/mL,0.5 µg/mL,16 µg/mL,8 µg/mL,< 0.31 mg/kg × 2,41 mg/kg × 2,> 10 mg/kg × 2
N--(L-phenylalanyl)A41030A [Example 17],0.125 µg/mL,0.125 µg/mL,0.125 µg/mL,0.125 µg/mL,0.125 µg/mL,0.125 µg/mL,0.125 µg/mL,0.125 µg/mL,0.5 µg/mL,0.125 µg/mL,8 µg/mL,16 µg/mL,0.08 mg/kg × 2,8.52 mg/kg × 2,> 10 mg/kg × 2
N--(lauroyl)A41030A [Example 20],0.5 µg/mL,0.5 µg/mL,1 µg/mL,0.5 µg/mL,0.5 µg/mL,0.5 µg/mL,1 µg/mL,1 µg/mL,0.5 µg/mL,0.5 µg/mL,32 µg/mL,32 µg/mL,0.6 mg/kg × 2,> 10 mg/kg × 2,> 10 mg/kg × 2
N--(nonanoyl)A41030A [Example 19],0.125 µg/mL,0.25 µg/mL,0.25 µg/mL,0.25 µg/mL,0.125 µg/mL,0.25 µg/mL,0.5 µg/mL,0.5 µg/mL,0.25 µg/mL,0.25 µg/mL,32 µg/mL,16 µg/mL,< 0.31 mg/kg × 2,> 10 mg/kg × 2,> 10 mg/kg × 2
N--(nonanoyl)A47934 [Example 25],0.125 µg/mL,0.125 µg/mL,0.25 µg/mL,0.125 µg/mL,0.06 µg/mL,0.125 µg/mL,0.5 µg/mL,0.25 µg/mL,0.25 µg/mL,0.25 µg/mL,8 µg/mL,8 µg/mL,< 0.31 mg/kg × 2,> 10 mg/kg × 2,> 10 mg/kg × 2
"N--[4-(N,N--dimethylamino)benzoyl]A41030A [Example 18]",0.25 µg/mL,0.5 µg/mL,0.5 µg/mL,0.25 µg/mL,0.25 µg/mL,0.5 µg/mL,1 µg/mL,0.5 µg/mL,1 µg/mL,2 µg/mL,-- (Compound not active at less than 128 mcg/ml),64 µg/mL,0.46 mg/kg × 2,> 10 mg/kg × 2,> 10 mg/kg × 2
N--[p-(octyloxy)benzoyl]A41030A [Example 21],1 µg/mL,1 µg/mL,2 µg/mL,2 µg/mL,0.5 µg/mL,1 µg/mL,2 µg/mL,2 µg/mL,2 µg/mL,1 µg/mL,-- (Compound not active at less than 128 mcg/ml),-- (Compound not active at less than 128 mcg/ml),2.19 mg/kg × 2,> 10 mg/kg × 2,> 10 mg/kg × 2
N--[p-(octyloxy)benzoyl]A47934 [Example 26],0.125 µg/mL,0.25 µg/mL,0.5 µg/mL,0.25 µg/mL,0.125 µg/mL,0.5 µg/mL,0.5 µg/mL,0.5 µg/mL,0.5 µg/mL,1 µg/mL,8 µg/mL,4 µg/mL,3.6 mg/kg × 2,> 10 mg/kg × 2,> 10 mg/kg × 2
